Measurements reported in US11661439B2, “Peptide hydrogels and use thereof” (The United States of America, as represented by the …, priority 2017, dated 2023).

Assays:
[1] = Oscillatory rheology of protein-loaded AcVES3 hydrogels; type: physicochemical; settings: at 60 min; 0.5 wt % AcVES3 hydrogel loaded with protein
Description: FIGS. 12A and 12B. […] (12A) Dynamic time sweep experiments. Hydrogels were set for 60 min, followed by 30 s of high strain, then a recovery period of 60 min. (12B) Storage moduli after 60 min. Bars outlined in black represent post shear storage moduli after 60 min recovery.
Oscillatory Rheology. Rheological assessment was conducted on a […] AR-G2 rheometer using a 25 mm stainless steel parallel geometry. A representative set of proteins was used to determine whether the fusion domain affected the material properties of the AcVES3 hydrogels. […] This solution was immediately applied to the center of the plate and the upper geometry was lowered to a gap height of […]. The temperature was increased from 5° C. to 37° C. over 100 s at a constant angular frequency of 6 rad s^−1 and 0.2% strain. The storage and loss moduli were monitored for 60 min at a constant angular frequency of 6 rad s^−1 and 0.2% strain at 37° C. […] The moduli were monitored for 60 min (6 rad s^−1, 0.2% strain, 37° C.), followed by the application of 1000% strain for 30 s to shear the gel, after which the strain was reduced to 0.2% and the gel was allowed to recover for 60 min (6 rad s^−1, 0.2% strain).

[2] = tested on: human dermal fibroblasts (HDFs); assay: 2D cell culture of HDFs on gel surfaces; type: cell-based; settings: Essential 8 Medium or serum-free DMEM
Description: 2D cell culture on peptide gels. Peptides were initially dissolved in water at 1 wt % on ice and mixed with an equal volume of ice-cold 2×HEPES buffer (50 mM HEPES, 300 mM NaCl, pH 7.4). The peptide solution (50 μL per well) was transferred to a non-tissue culture treated 96-well plates and incubated at 37° C. to initiate gelation. After 1 hour, HDFs (2×10^4 cells per 200 μL, per well) in serum-free DMEM, 10% FBS supplemented DMEM, or Essential 8 Medium (Thermo Fisher Scientific) were seeded on the peptide gels and cultured for 4 days. Bovine type I collagen gels (0.3 wt %, 50 μL per well) were prepared in 96-well plates following manufacturer's instructions.
Cell viability assay. Cell viability was evaluated by live and dead cell staining after 2D and 3D cell culture. Serum-free DMEM containing 1 μM calcein-AM and 2 μM ethidium homodimer-1 was added to the cells (200 μL per well for 2D culture and 500 μL each to the top and bottom of the gels for 3D culture). After incubation at 37° C. for 30 min, live and dead cells were visualized using EVOS FL Auto Cell Imaging System (Thermo Fisher Scientific). For the pseudo-colored composite image of varying heights of encapsulated cells, images of the live-stained cells were captured every 5 μm of height. Then Z-stack images for each 100 μm were flattened using the EVOS software, and the flattened images were pseudo-colored and merged using ImageJ.
Cell proliferation assay. A cell proliferation assay was performed using Cell Counting Kit-8 (CCK-8, Dojindo Molecular Technologies) for 2D and 3D cell culture. Serum-free DMEM containing 10% CCK-8 was added to the gels (200 μL per well for 2D culture; 500 μL to the top of the gels for 3D culture) and incubated for 2 hours at 37° C. Subsequently, media were transferred to 96-well plates (150 μL per well) and their absorbance measured at 450 nm relative to control viabilities from day 0 for 2D cell culture and day 1 for 3D cell culture. Experiments were performed in triplicate.
Cytoskeleton staining. For 2D cell culture, the peptide and collagen gels (70 μL) were prepared as described above on the glass bottom of 35 mm dishes (7 mm glass diameter, MatTek). HDFs in Essential 8 Medium (1.5×10^5 cells per 3 mL) were added to the dishes and incubated at 37° C. for 24 hours. Cells were fixed and permeabilized with 4% paraformaldehyde and 0.1% Triton X-100 in PBS for 15 min, and then blocked with 1% BSA in PBS. Cells were incubated with anti-vinculin antibody (hVIN-1, Sigma) for 1 hour at room temperature. Then, a goat anti-mouse IgG (H+L) cross-adsorbed secondary antibody, Rhodamine Red-X (2 μg mL^−1, Thermo Fisher Scientific), Alexa Fluor 488 phalloidin (5 units mL^−1, Thermo Fisher Scientific), and Hoechst 33342 (5 μg mL^−1, Invitrogen) in PBS were added to the dishes and incubated for 1 hour at room temperature. After washing, cells were visualized using an EVOS FL Auto Cell Imaging System.

[3] = TEM analysis of peptide fibrils; type: physicochemical; settings: 30 independent measurements
Description: FIG. 4. Fibril visualization of β-hairpin peptide hydrogels. Transmission Electron Microscopy (TEM) images of peptide fibrils and frequency distributions determined from 30 independent measurements (scale bar=100 nm).
Transmission electron microscopy (TEM) analysis. The hydrogel nanostructure of the peptide gels was observed using a Hitachi H-7650 transmission electron microscope at a voltage of 80 kV. A 1 wt % solution of peptide and an equal volume of buffer (50 mM HEPES containing 300 mM NaCl, pH 7.4) was mixed and incubated overnight at 37° C. to allow for gelation. The next day, samples for TEM analysis were prepared by suspending 5 μL of the resulting peptide gel in 195 μL of water to yield a 40-fold dilution. Small amounts (5 μL) of each diluted gel solution were applied to separate carbon coated copper grids. After 1 min, the grid was washed with water. Then, a 1 w/v % uranyl acetate aqueous solution was placed on each grid for negative staining. Excess staining solution was blotted away, left to air dry, and the grids were imaged immediately.

## EGFP: fluorescent protein EGFP, SEQ ID NO: 19, model heterologous protein with net negative charge
[1]
  storage moduli: ~1000 Pa

## Ac-VEVSVSVEV^DPPTEVSVEVEV-NH2 [AcVES3]
[2]; day 1
  cell adhesion of HDFs on gel surface: adhered
[2]; day 4
  cell adhesion of HDFs on gel surface: most of the cells detached
[3]
  average fibril width: 3.1±0.4 nm
